In ChEMBL document CHEMBL5050844 (2019):

Key:
[1] = Induction of anti-CD3/CD28 antibodies-stimulated human T cell activation at 4 uM assessed fold increase in IL-2 secretion measured by ELISA assay; assay type: functional, T cell line
[2] = Induction of anti-CD3/CD28 antibodies-stimulated human T cell activation at 1 uM assessed fold increase in IL-2 secretion measured by ELISA assay; assay type: functional, T cell line
[3] = Induction of anti-CD3/CD28 antibodies-stimulated human T cell activation at 0.3 uM assessed fold increase in IL-2 secretion measured by ELISA assay; assay type: functional, T cell line
[4] = Induction of anti-CD3/CD28 antibodies-stimulated human T cell activation at 4 uM assessed fold increase in CD25 expression measured by ELISA assay; assay type: functional, T cell line
[5] = Induction of anti-CD3/CD28 antibodies-stimulated human T cell activation at 1 uM assessed fold increase in CD25 expression measured by ELISA assay; assay type: functional, T cell line
[6] = Induction of anti-CD3 antibodies-stimulated human T cell activation at 8 uM assessed fold increase in CD25 expression measured by ELISA assay; assay type: functional, T cell line; further: reference of the scale not given here
[7] = Induction of anti-CD3 antibodies-stimulated human T cell activation at 1 uM assessed fold increase in CD25 expression measured by ELISA assay; assay type: functional, T cell line; further: reference of the scale not given here
[8] = Induction of anti-CD3/CD28 antibodies-stimulated human CD4+ T cell activation at 10 uM assessed fold increase in CD69 expression measured by flow cytometry analysis; assay type: functional, T cell line
[9] = Induction of anti-CD3/CD28 antibodies-stimulated human CD4+ T cell activation at 1.11 uM assessed fold increase in CD69 expression measured by flow cytometry analysis; assay type: functional, T cell line
[10] = Induction of anti-CD3/CD28 antibodies-stimulated human CD4+ T cell activation at 10 uM assessed fold increase in cell proliferation measured by flow cytometry analysis; assay type: functional, T cell line
[11] = Induction of anti-CD3/CD28 antibodies-stimulated human CD4+ T cell activation at 1.11 uM assessed fold increase in cell proliferation measured by flow cytometry analysis; assay type: functional, T cell line
[12] = Induction of anti-CD3/CD28 antibodies-stimulated human CD8+ T cell activation at 10 uM assessed fold increase in CD69 expression measured by flow cytometry analysis; assay type: functional, T cell line
[13] = Induction of anti-CD3/CD28 antibodies-stimulated human CD8+ T cell activation at 10 uM assessed fold increase in cell proliferation measured by flow cytometry analysis; assay type: functional, T cell line
[14] = Induction of anti-CD3/CD28 antibodies-stimulated human CD8+ T cell activation at 1.11 uM assessed fold increase in cell proliferation measured by flow cytometry analysis; assay type: functional, T cell line
[15] = Induction of anti-CD3 antibodies-stimulated human CD4+ T cell activation at 1.11 uM assessed fold increase in CD69 expression measured by flow cytometry analysis; assay type: functional, T cell line; further: reference of the scale not given here
[16] = Induction of anti-CD3 antibodies-stimulated human CD8+ T cell activation at 10 uM assessed fold increase in CD69 expression measured by flow cytometry analysis; assay type: functional, T cell line; further: reference of the scale not given here
[17] = Induction of anti-CD3 antibodies-stimulated human CD8+ T cell activation at 1.11 uM assessed fold increase in CD69 expression measured by flow cytometry analysis; assay type: functional, T cell line; further: reference of the scale not given here
[18] = Induction of anti-CD3/CD28 antibodies-stimulated human T cell activation at 1.11 uM assessed fold increase in GM-CSF secretion measured by ELISA assay; assay type: functional, T cell line
[19] = Induction of anti-CD3 antibodies-stimulated human T cell activation at 1.11 uM assessed fold increase in GM-CSF secretion measured by ELISA assay; assay type: functional, T cell line; further: reference of the scale not given here
[20] = Induction of anti-CD3/CD28 antibodies-stimulated human T cell activation at 10 uM assessed fold increase in TNF-alpha secretion measured by ELISA assay; assay type: functional, T cell line
[21] = Induction of anti-CD3/CD28 antibodies-stimulated human T cell activation at 1.11 uM assessed fold increase in TNF-alpha secretion measured by ELISA assay; assay type: functional, T cell line
[22] = Induction of anti-CD3 antibodies-stimulated human T cell activation at 10 uM assessed fold increase in TNF-alpha secretion measured by ELISA assay; assay type: functional, T cell line; further: reference of the scale not given here
[23] = Induction of anti-CD3 antibodies-stimulated human T cell activation at 1.11 uM assessed fold increase in TNF-alpha secretion measured by ELISA assay; assay type: functional, T cell line; further: reference of the scale not given here
[24] = Induction of anti-CD3 antibodies-stimulated human T cell activation at 1.11 uM assessed fold increase in IFN-gamma secretion measured by ELISA assay; assay type: functional, T cell line; further: reference of the scale not given here
[25] = Induction of allogenic human T cell activation at 10 uM assessed fold increase in cell proliferation; assay type: functional, T cell line
[26] = Induction of allogenic human T cell activation at 3 uM assessed fold increase in cell proliferation; assay type: functional, T cell line
[27] = Induction of anti-CD3 antibodies-stimulated human exhausted T cell activation assessed fold increase in IFN-gamma secretion measured by ELISA assay; assay type: functional, T cell line; further: reference of the scale not given here
[28] = Induction of anti-CD3 antibodies-stimulated human exhausted T cell activation assessed fold increase in IL-2 secretion measured by ELISA assay; assay type: functional, T cell line; further: reference of the scale not given here
[29] = Induction of anti-CD3/CD28 antibodies-stimulated human anergic T cell activation at 10 uM assessed fold increase in IFN-gamma secretion measured by ELISA assay; assay type: functional, T cell line
[30] = Induction of anti-CD3/CD28 antibodies-stimulated human anergic T cell activation at 1.11 uM assessed fold increase in IFN-gamma secretion measured by ELISA assay; assay type: functional, T cell line
[31] = Induction of anti-CD3/CD28 antibodies-stimulated human anergic T cell activation at 0.37 uM assessed fold increase in IFN-gamma secretion measured by ELISA assay; assay type: functional, T cell line
B cell = experiment: Induction of anti-IgM-stimulated human CD20+ B cell activation at 10 to 1000 uM assessed as increase in CD69 expression measured as mean fluorescence intensity AUC by flow cytometry analysis; assay type: functional, cell-based; details: dose 10-1000 µM
[32] = Induction of activation of human CD56+ CD3- NK cells co-cultured with human K562 cells in 1:1 ratio and assessed as increase in IFN-gamma secretion at 10 uM measured by ELISA assay; assay type: functional, Natural killer cell
[33] = Induction of activation of human CD56+ CD3- NK cells co-cultured with human K562 cells in 1:1 ratio and assessed as increase in TNF-alpha secretion at 10 uM measured by ELISA assay; assay type: functional, Natural killer cell
[34] = Induction of activation of human CD56+ CD3- NK cells co-cultured with human K562 cells in 1:1 ratio and assessed as increase in IFN-gamma secretion at 2.5 uM measured by ELISA assay; assay type: functional, Natural killer cell
[35] = Induction of activation of human CD56+ CD3- NK cells co-cultured with human K562 cells in 1:1 ratio and assessed as increase in IFN-gamma secretion at 0.625 uM measured by ELISA assay; assay type: functional, Natural killer cell
[36] = Induction of activation of human CD56+ CD3- NK cells co-cultured with human K562 cells in 1:1 ratio and assessed as increase in TNF-alpha secretion at 2.5 uM measured by ELISA assay; assay type: functional, Natural killer cell
[37] = Induction of activation of human CD56+ CD3- NK cells co-cultured with human K562 cells in 1:1 ratio and assessed as increase in TNF-alpha secretion at 0.625 uM measured by ELISA assay; assay type: functional, Natural killer cell

Compound	fold change (FC) [1]	fold change (FC) [2]	fold change (FC) [3]	fold change (FC) [4]	fold change (FC) [5]	fold change (FC) [6]	fold change (FC) [7]	fold change (FC) [8]	fold change (FC) [9]	fold change (FC) [10]	fold change (FC) [11]	fold change (FC) [12]	fold change (FC) [13]	fold change (FC) [14]	fold change (FC) [15]	fold change (FC) [16]	fold change (FC) [17]	fold change (FC) [18]	fold change (FC) [19]	fold change (FC) [20]	further results
C[C@H](Sc1nncn1C)c1cccc(NC(=O)c2cccc(C(F)(F)F)n2)c1	>=7.5	2.51	1.01	>=1.76	1.31	>=1.001	0.601	<=1.2	<=1.2	<=2	<=2	<=1.2	<=2	<=2	<=1.2	<=1.2	<=1.2	1.51	1.51	2.01	fold change (FC) [21]: 1.51; fold change (FC) [22]: 1.51; fold change (FC) [23]: 1.51; fold change (FC) [24]: <=2; fold change (FC) [25]: <=2; fold change (FC) [26]: <=2; fold change (FC) [27]: <=1.4; fold change (FC) [28]: <=2.5; fold change (FC) [29]: 2.51; fold change (FC) [30]: 2.51; fold change (FC) [31]: <=2.5; AUC (B cell): 0.5; fold change (FC) [32]: 2.01; fold change (FC) [33]: 1.01; fold change (FC) [34]: 1.01; fold change (FC) [35]: <=1; fold change (FC) [36]: 1.01; fold change (FC) [37]: 1.01
C[C@H](Sc1nncn1C)c1cccc(NC(=O)c2cc(C(=O)N3CC[C@H](O)C3)ccn2)c1	<=1	<=1	<=1	1.01	1.01	0.801	0.601	>1.601	1.401	>4	>4	1.201	>4	>4	>1.601	1.401	1.401	2.01	2.01	2.01	fold change (FC) [21]: 2.01; fold change (FC) [22]: 2.01; fold change (FC) [23]: 1.51; fold change (FC) [24]: 3.01; fold change (FC) [25]: <=2; fold change (FC) [26]: <=2; fold change (FC) [27]: <=1.4; fold change (FC) [28]: <=2.5; fold change (FC) [29]: 2.51; fold change (FC) [30]: <=2.5; fold change (FC) [31]: <=2.5; AUC (B cell): < 0.5; fold change (FC) [32]: 1.01; fold change (FC) [33]: <=1; fold change (FC) [34]: <=1; fold change (FC) [35]: <=1; fold change (FC) [36]: <=1; fold change (FC) [37]: <=1
C[C@H](Cc1nncn1C)c1cccc(N2Cc3c(cc(CN4CC[C@](C)(O)C4)cc3C(F)(F)F)C2=O)c1	>=7.5	5	2.51	1.31	1.31	>=1.001	>=1.001	1.401	1.401	>4	>4	1.201	>4	3.01	>1.601	1.401	1.201	2.01	2.01	2.01	fold change (FC) [21]: 2.01; fold change (FC) [22]: 2.01; fold change (FC) [23]: <=1.5; fold change (FC) [24]: <=2; fold change (FC) [25]: 2.01; fold change (FC) [26]: 2.01; fold change (FC) [27]: >1.61; fold change (FC) [28]: 2.51; fold change (FC) [29]: >4.01; fold change (FC) [30]: >4.01; fold change (FC) [31]: <=2.5; AUC (B cell): 0.5; fold change (FC) [32]: >=5; fold change (FC) [33]: 2.01; fold change (FC) [34]: 2.01; fold change (FC) [35]: 2.01; fold change (FC) [36]: 2.01; fold change (FC) [37]: 1.01
